# Data reported in US11919902B2, “Aryl-bipyridine amine derivatives as phosphatidylinositol phosphate kinase inhibitors” (HiberCell, Inc., priority 2017, dated 2024).
# Biological target: T1, PIP4K2A (full length protein, SignalChem) (Homo sapiens, UniProt P48426)
# T1 construct: 4 nM PIP4K2A (full length protein, SignalChem); purchased SignalChem
# T1 sequence (P48426 1-406): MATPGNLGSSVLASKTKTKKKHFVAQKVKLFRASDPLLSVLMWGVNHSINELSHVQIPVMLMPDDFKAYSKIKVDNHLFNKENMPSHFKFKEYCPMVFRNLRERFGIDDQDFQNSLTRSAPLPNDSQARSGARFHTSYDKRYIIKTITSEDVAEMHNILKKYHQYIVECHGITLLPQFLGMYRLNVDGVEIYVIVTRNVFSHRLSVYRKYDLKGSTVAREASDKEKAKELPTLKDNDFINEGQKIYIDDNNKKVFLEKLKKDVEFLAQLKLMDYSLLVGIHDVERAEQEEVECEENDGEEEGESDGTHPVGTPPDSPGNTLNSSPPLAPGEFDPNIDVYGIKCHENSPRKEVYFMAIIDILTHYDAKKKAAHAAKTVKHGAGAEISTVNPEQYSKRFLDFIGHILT
# Test: Kinase Assay PIP4K2 A (Sprint); ADP-Glo biochemical assay
# Details: Table 2; compounds listed under IC50 range headings
# Protocol: Dilution series of the compounds were prepared in DMSO at 100 times the final assay concentration (n1=n0/3 in 10 points). The compounds were further diluted to three times the assay concentration in assay buffer (20 mM MOPS pH 7.2, 25 mM magnesium chloride, 0.005% Tween 20). 6 μL of the diluted compounds were added to a 384 well assay plate followed by 9 μL of a mix consisting of 4 nM PIP4K2A (full length protein, SignalChem) and 100 μM PI(5)P diC8 (Tebu-Bio). Enzyme and compounds were pre-incubated at room temperature for 15 min.
# Then 3 μL of a solution containing 60 μM ATP (Promega) in assay buffer was added to the wells containing compound and enzyme and mixing was performed by pipetting several times. The reaction was incubated at room temperature for 1 h. Then 18 μL of ADP-Glo™ Reagent (Promega) was added to stop the kinase reaction and deplete the unconsumed ATP, mixing was performed by pipetting several times. The plate was incubated at room temperature for 40 min before addition of 36 μL of Kinase Detection Reagent (Promega) to convert ADP to ATP and introduce luciferase and luciferin to detect ATP. The reaction was incubated at room temperature for 40 min before the luminescence was measured in a in a Victor 3V 1420 multilabel counter (Perkin Elmer).
# Percent inhibition of the compounds as compared to dimethyl sulfoxide treated control samples was calculated. Compound concentration versus percent inhibition were fitted to generate IC50 values.
row,SMILES,IC50 [nM]
1,"CN(C)C(=O)c1ccc(-c2cc(-c3ccnnc3)cnc2N)nc1 [Example 108, 2′-amino-N,N-dimethyl-5′-(pyridazin-4-yl)-[2,3′-bipyridine]-5-carboxamide]",2500 to 5000
2,"CN(C)C(=O)c1ccc(-c2cc(-c3ccc(=O)[nH]c3)cnc2N)cc1 [Example 17, 4-(6-amino-6′-oxo-1′,6′-dihydro-[3,3′-bipyridin]-5-yl)-N,N-dimethylbenzamide]",< 5000
3,"CN(C)C(=O)c1ccc(-c2cc(C3=CCOCC3)cnc2N)cc1 [Example 18, 4-(2-amino-5-(3,6-dihydro-2H-pyran-4-yl)pyridin-3-yl)-N,N-dimethylbenzamide]",< 5000
4,"Cn1cc(-c2cncc(-c3ccc(N4CCCC4=O)cc3)c2)c2cc(C(C)(C)O)cnc21 [Example 154, 1-(4-(5-(5-(2-hydroxypropan-2-yl)-1-methyl-1H-pyrrolo[2,3-b]pyridin-3-yl)pyridin-3-yl)phenyl)pyrrolidin-2-one]",< 5000
5,"CN(C)C(=O)c1ccc(-c2cc(-c3ccnc(C(C)(C)O)c3)cnc2N)nc1 [Example 101, 2′-Amino-2″-(2-hydroxypropan-2-yl)-N,N-dimethyl-[2,3′:5′,4″-terpyridine]-5-carboxamide]",1000 to 2500
6,"COC(C)(C)c1cnc2c(c1)c(-c1cncc(-c3ccc(N4CCCC4=O)cc3)c1)cn2C [Example 155, 1-(4-(5-(5-(2-methoxypropan-2-yl)-1-methyl-1H-pyrrolo[2,3-b]pyridin-3-yl)pyridin-3-yl)phenyl)pyrrolidin-2-one]",< 5000
7,"CN(C)C(=O)c1ccc(-c2cc(-c3cccnc3)cnc2N)nc1 [Example 119, 2′-amino-N,N-dimethyl-[2,3′:5′,3″-terpyridine]-5-carboxamide]",< 5000
8,"CN(C)C(=O)c1ccc(-c2cc(-c3ccnc(C(C)(C)C)c3)cnc2N)nc1 [Example 106, 2′-amino-2″-(tert-butyl)-N,N-dimethyl-[2,3′:5′,4″-terpyridine]-5-carboxamide]",1000 to 2500
9,"COc1ncc(-c2cncc(-c3ccc(N4CCCC4=O)cc3)c2)c2cnn(C)c12 [Example 156, 1-(4-(5-(7-methoxy-1-methyl-1H-pyrazolo[3,4-c]pyridin-4-yl)pyridin-3-yl)phenyl)pyrrolidin-2-one]",< 5000
10,"CN(C)C(=O)c1ccc(-c2cncc(-c3ccnc(C(C)(C)O)c3)c2)cc1 [Example 8, 4-(2′-(2-hydroxypropan-2-yl)-[3,4′-bipyridin]-5-yl)-N,N-dimethylbenzamide]",1000 to 2500
11,"CN(C)C(=O)c1ccc(-c2cc(-c3ccnc4ccncc34)cnc2N)nc1 [Example 112, 2′-amino-N,N-dimethyl-5′-(1,6-naphthyridin-4-yl)-[2,3′-bipyridine]-5-carboxamide]",1000 to 2500
12,"CN(C)C(=O)c1ccc(-c2cc(-c3ccncc3)cnc2N)cc1 [Example 16, 4-(6-amino-[3,4′-bipyridin]-5-yl)-N,N-dimethylbenzamide]",< 5000

# Other lines, results leading:
row,IC50 [nM],SMILES
1,1000 to 2500,"CN(C)C(=O)c1ccc(-c2cc(-c3ccnc(C#N)c3)cnc2N)nc1 [Example 107, 2′-amino-2″-cyano-N,N-dimethyl-[2,3′:5′,4″-terpyridine]-5-carboxamide]"
2,100 to 1000,"Cc1c(-c2ccncc2)cncc1-c1ccc(N2CCCC2=O)cc1 [Example 82, 1-(4-(4-methyl-[3,4′-bipyridin]-5-yl)phenyl)pyrrolidin-2-one]"
3,5 to 100,"O=C1CCCN1c1ccc(-c2cncc(-c3c4n(c5ncccc35)CCC4)c2)cc1 [Example 299, 1-(4-(5-(7,8-dihydro-6H-pyrido[3,2-b]pyrrolizin-5-yl)pyridin-3-yl)phenyl)pyrrolidin-2-one]"
4,100 to 1000,"COC(=O)c1cc2c(-c3cnc(N)c(-c4ccc(N5CCCC5=O)cc4)c3)ccnc2[nH]1 [Example 94, methyl 4-(6-amino-5-(4-(2-oxopyrrolidin-1-yl)phenyl)pyridin-3-yl)-1H-pyrrolo[2,3-b]pyridine-2-carboxylate]"
5,1000 to 2500,"CN(C)C(=O)c1ccc(-c2cc(-c3ccnc(C(C)(C)C#N)c3)cnc2N)nc1 [Example 102, 2′-Amino-2″-(2-cyanopropan-2-yl)-N,N-dimethyl-[2,3′:5′,4″-terpyridine]-5-carboxamide]"
6,1000 to 2500,"CN(C)C/C=C/C(=O)Nc1ccc(C(=O)NCc2cc(-c3cnc(N)c(-c4ccc(C(=O)N(C)C)cn4)c3)ccn2)cc1 [Example 189, (E)-2′-amino-2″-((4-(4-(dimethylamino)but-2-enamido)benzamido)methyl)-N,N-dimethyl-[2,3′:5′,4″-terpyridine]-5-carboxamide]"
7,1 to 5,"Nc1ncc(-c2ccnc3c2CNC3=O)cc1-c1ccc(N2CCCC2=O)cc1 [Example 95, 4-(6-amino-5-(4-(2-oxopyrrolidin-1-yl)phenyl)pyridin-3-yl)-5,6-dihydro-7H-pyrrolo[3,4-b]pyridin-7-one]"
8,1000 to 2500,"CN(C)C/C=C/C(=O)Nc1cccc(C(=O)NCc2cc(-c3cnc(N)c(-c4ccc(C(=O)N(C)C)cn4)c3)ccn2)c1 [Example 192, (E)-2′-amino-2″-((3-(4-(dimethylamino)but-2-enamido)benzamido)methyl)-N,N-dimethyl-[2,3′:5′,4″-terpyridine]-5-carboxamide]"
9,5 to 100,"Nc1ncc(-c2ccnc3oc(C(=O)NC4COC4)cc23)cc1-c1ccc(N2CCCC2=O)cc1 [Example 93, 4-(6-amino-5-(4-(2-oxopyrrolidin-1-yl)phenyl)pyridin-3-yl)-N-(oxetan-3-yl)furo[2,3-b]pyridine-2-carboxamide]"
10,100 to 1000,"CN(C)C(=O)c1ccc(-c2cc(-c3ccnc4occc34)cnc2N)nc1 [Example 104, 2′-amino-5′-(furo[2,3-b]pyridin-4-yl)-N,N-dimethyl-[2,3′-bipyridine]-5-carboxamide]"
11,100 to 1000,"CN(C)C(=O)c1ccc(-c2cc(-c3ccncc3)cnc2N)nc1 [Example 19, 2′-amino-N,N-dimethyl-[2,3′:5′,4″-terpyridine]-5-carboxamide]"
12,100 to 1000,"CN(C)C(=O)c1ccc(-c2cc(-c3ccnc(C4(C#N)CC4)c3)cnc2N)nc1 [Example 103, 2′-amino-2″-(1-cyanocyclopropyl)-N,N-dimethyl-[2,3′:5′,4″-terpyridine]-5-carboxamide]"
13,100 to 1000,"CN(C)C(=O)c1ccc(-c2cc(-c3ccnc4c3ccn4C)cnc2N)nc1 [Example 105, 2′-amino-N,N-dimethyl-5′-(1-methyl-1H-pyrrolo[2,3-b]pyridin-4-yl)-[2,3′-bipyridine]-5-carboxamide]"
14,100 to 1000,"CN(C)C(=O)c1ccc(-c2cncc(-c3cncc(-c4ccnc5[nH]ccc45)c3)c2)cc1 [Example 3, 4-(5′-(H-pyrrolo[2,3-b]pyridin-4-yl)-[3,3′-bipyridin]-5-yl)-N,N-dimethylbenzamide]"
15,100 to 1000,"CN(C)C(=O)c1ccc(-c2cc(-c3ccnc4ccc(C#N)cc34)cnc2N)nc1 [Example 100, 2′-Amino-5′-(6-cyanoquinolin-4-yl)-N,N-dimethyl-[2,3′-bipyridine]-5-carboxamide]"
16,5 to 100,"CN(C)C(=O)c1ccc(-c2cc(-c3ccnc4[nH]ncc34)cnc2N)nc1 [Example 212, 2′-amino-N,N-dimethyl-5′-(2H-pyrazolo[3,4-b]pyridin-4-yl)-[2,3′-bipyridine]-5-carboxamide]"
